Source: ChEMBL document CHEMBL1201862, “PubChem BioAssay data set” (2004)
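Test compounds were applied to cells in 96-well plates for 48 hours at 5 doses. At the GI50, growth is halved.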 Activity calls are given as the source filed them. Rule as the data show it: active = GI50 up to about 1.1 µM and inactive = higher.

Key:
Test in all cases: NCI anticancer screen, dose series, 48 h
[1] = test system: NCI-H522
[2] = test system: SK-MEL-5
[3] = test system: NCI-H460
[4] = test system: SK-OV-3
[5] = test system: UO-31
[6] = test system: CAKI-1
[7] = test system: K562
[8] = test system: HCT-15
[9] = test system: RPMI-8226
[10] = test system: UACC-62
[11] = test system: SN12C
[12] = test system: HCC 2998
[13] = test system: HOP-18
[14] = test system: HCT-116
[15] = test system: RXF 393
[16] = test system: SNB-78
[17] = test system: A549
[18] = test system: SNB-75
[19] = test system: M14
[20] = test system: XF498
[21] = test system: SNB-19
[22] = test system: KM12
[23] = test system: MOLT-4
[24] = test system: IGROV-1
[25] = test system: LXFL 529
[26] = test system: Malme-3M
[27] = test system: SR
[28] = test system: SK-MEL-2
[29] = test system: NCI-H226
[30] = test system: HT-29
[31] = test system: DMS-114
[32] = test system: KM-20L2
[33] = test system: OVCAR-5
[34] = test system: 786-0
[35] = test system: COLO 205
[36] = test system: TK-10
[37] = test system: ACHN
[38] = test system: OVCAR-3
[39] = test system: HOP-92
[40] = test system: UACC-257
[41] = test system: NCI-H23
[42] = test system: EKVX
[43] = test system: SF-295
[44] = test system: U-251
[45] = test system: SK-MEL-28
[46] = test system: SW-620
[47] = test system: OVCAR-4
[48] = test system: OVCAR-8
[49] = test system: SF-268
[50] = test system: SF-539
[51] = test system: CCRF-CEM
[52] = test system: DMS-273
[53] = test system: HOP-62
[54] = test system: M19-MEL
[55] = test system: LOX IMVI
[56] = test system: DLD-1
[57] = test system: HL-60

## COC1OC(COCc2ccc(Cl)cc2)C(OCc2ccc(Cl)cc2)C1N=[N+]=[N-] (stereo unspecified)
[1]
  GI50: 85.1 µM (inactive)
[2]
  GI50: 44 µM (inactive)
[3]
  GI50: > 100 µM (inactive)
[4]
  GI50: > 100 µM (inactive)
[5]
  GI50: > 100 µM (inactive)
[6]
  GI50: > 100 µM (inactive)
[7]
  GI50: 49.8 µM (inactive)
[8]
  GI50: > 100 µM
[9]
  GI50: 19.4 µM (inactive)
[10]
  GI50: 15.3 µM (inactive)
[11]
  GI50: > 100 µM (inactive)
[12]
  GI50: > 100 µM (inactive)
[13]
  GI50: > 100 µM (inactive)
[14]
  GI50: > 100 µM (inactive)
[15]
  GI50: 27.1 µM (inactive)
[16]
  GI50: > 100 µM (inactive)
[17]
  GI50: 4.32 µM (inactive)
[18]
  GI50: 73.5 µM (inactive)
[19]
  GI50: > 100 µM (inactive)
[20]
  GI50: > 100 µM (inactive)
[21]
  GI50: > 100 µM (inactive)
[22]
  GI50: > 100 µM (inactive)
[23]
  GI50: 42.2 µM (inactive)
[24]
  GI50: 72.3 µM (inactive)
[25]
  GI50: 95.5 µM (inactive)
[26]
  GI50: > 100 µM (inactive)
[27]
  GI50: 36.2 µM (inactive)
[28]
  GI50: > 100 µM (inactive)
[29]
  GI50: > 100 µM (inactive)
[30]
  GI50: > 100 µM (inactive)
[31]
  GI50: 24.2 µM (inactive)
[32]
  GI50: 8 µM (inactive)
[33]
  GI50: > 100 µM (inactive)
[34]
  GI50: 4.7 µM (inactive)
[35]
  GI50: > 100 µM (inactive)
[36]
  GI50: > 100 µM (inactive)
[37]
  GI50: > 100 µM (inactive)
[38]
  GI50: 47.8 µM (inactive)
[39]
  GI50: 97.1 µM (inactive)
[40]
  GI50: 81.7 µM (inactive)
[41]
  GI50: 45.1 µM (inactive)
[42]
  GI50: > 100 µM (inactive)
[43]
  GI50: > 100 µM (inactive)
[44]
  GI50: > 100 µM (inactive)
[45]
  GI50: > 100 µM (inactive)
[46]
  GI50: > 100 µM (inactive)
[47]
  GI50: > 100 µM (inactive)
[48]
  GI50: > 100 µM (inactive)

## CC1=NN(C(=O)Cc2ccccc2)C(=O)/C1=C\c1ccco1
[1]
  GI50: > 100 µM (inactive)
[2]
  GI50: > 100 µM (inactive)
[5]
  GI50: > 100 µM (inactive)
[6]
  GI50: > 100 µM (inactive)
[49]
  GI50: > 100 µM (inactive)
[7]
  GI50: > 100 µM (inactive)
[8]
  GI50: > 100 µM
[9]
  GI50: > 100 µM (inactive)
[11]
  GI50: > 100 µM (inactive)
[12]
  GI50: > 100 µM (inactive)
[13]
  GI50: > 100 µM (inactive)
[14]
  GI50: > 100 µM (inactive)
[16]
  GI50: > 100 µM (inactive)
[17]
  GI50: > 100 µM (inactive)
[18]
  GI50: > 100 µM (inactive)
[19]
  GI50: > 100 µM (inactive)
[20]
  GI50: > 100 µM (inactive)
[21]
  GI50: > 100 µM (inactive)
[22]
  GI50: > 100 µM (inactive)
[23]
  GI50: > 100 µM (inactive)
[50]
  GI50: > 100 µM (inactive)
[26]
  GI50: > 100 µM (inactive)
[27]
  GI50: > 100 µM (inactive)
[51]
  GI50: > 100 µM (inactive)
[28]
  GI50: > 100 µM (inactive)
[29]
  GI50: > 100 µM (inactive)
[30]
  GI50: > 100 µM (inactive)
[31]
  GI50: > 100 µM (inactive)
[33]
  GI50: > 100 µM (inactive)
[52]
  GI50: > 100 µM (inactive)
[34]
  GI50: > 100 µM (inactive)
[35]
  GI50: > 100 µM (inactive)
[53]
  GI50: > 100 µM (inactive)
[36]
  GI50: > 100 µM (inactive)
[37]
  GI50: > 100 µM (inactive)
[38]
  GI50: > 100 µM (inactive)
[54]
  GI50: > 100 µM (inactive)
[40]
  GI50: > 100 µM (inactive)
[41]
  GI50: > 100 µM (inactive)
[42]
  GI50: > 100 µM (inactive)
[43]
  GI50: > 100 µM (inactive)
[45]
  GI50: > 100 µM (inactive)
[55]
  GI50: > 100 µM (inactive)
[46]
  GI50: > 100 µM (inactive)
[56]
  GI50: > 100 µM (inactive)
[47]
  GI50: > 100 µM (inactive)
[57]
  GI50: > 100 µM (inactive)
[48]
  GI50: > 100 µM (inactive)
